A value given as a limit tells only on which side of the number the result lay.

For orientation: melting point means the temperature of the solid-liquid transition. Regarding `O=C(O)c1ccc(CN(Cc2cc(Br)ccc2OCc2ccccc2)c2ccc(C(=O)O)cc2)cc1`, the melting point was 271 °C.

Turning to `Cc1ccc(S(=O)(=O)N(C)c2ccc(Cl)cc2Cl)cc1`, the melting point lay in the range of 86 to 87 °C.

The compound `COc1cc(OC)nc(Nc2cc(C)ccc2N)n1` had a melting point of 128 to 129 °C. As for `Cc1cc(C)c2c(n1)CCCC2=O`, the figure is 54 to 57 °C; as for `CCOC(=O)c1c(-c2ccccc2Cl)c2cc(Cl)ccc2[nH]c1=O`, 223 to 224 °C; as for `c1ccc(Oc2cccc3c2CCN(Cc2c[nH]c4ncccc24)C3)cc1`, 179 to 180 °C.

In turn, `COc1cc2sc(C)nc2cc1C` yielded a melting point of 89 to 90 °C. In turn, `CN(C)C(=O)[C@@H]1C[C@H]1C(=O)c1c[nH]c2ccc(F)cc12` (relative stereo) had a melting point of 239 to 241 °C. As for `Clc1cc2nc(NCCCN3CCOCC3)c(-c3ccccn3)nc2cc1Cl`, the figure is 119 to 121 °C; as for `Cc1cc(C=CC(=O)O)c(Cl)nc1C`, 150 to 158 °C; as for `N#CC1(c2ccc(Cl)cc2)CCC(=O)CC1`, 94.5 to 97 °C. As for `COc1c(N)cc(C)cc1N`, the figure is 67 to 69 °C. As to `CC(C)(C)c1cc(CP(=O)(O)c2ccccc2)cc(C(C)(C)C)c1O`, the melting point was 185 to 186 °C. For the compound `COc1ccc(C2COc3cc(O)c(O)cc3C2)cc1` (stereo not given), the melting point is 160 °C. The compound `[N-]=[N+]=Nc1ccc(C(=O)NCCCC[C@@H](C(=O)O)n2c3ccccc3c3ccccc32)cc1` displayed a melting point of 98 to 100 °C. As for `CCCCCCCN(CC(c1ccccc1)c1ccccc1)C(=O)Nc1c(C)cccc1C`, the figure is 171 to 173 °C. As for `O=C(NCCc1ccc(O)c(O)c1)C1CC1`, the figure is 174 to 176 °C; as for `CCCCCc1ccc(-c2ccc(C(C)O)cc2)cc1` (single isomer, unassigned; (-)), 83.8 °C. In the case of `COc1ccc(C=O)cc1CN1C(=O)c2ccccc2C1=O`, the melting point lay within 109 to 111 °C. In turn, `N#Cc1ccc(N(Cc2ccc(OCc3ccccc3)cc2)n2cnnc2)cc1-c1cc2ccccc2o1` had a melting point of 200 to 201 °C. As for `Cn1nc(C(=O)O)nc1NCCCOc1cccc(CN2CCCCC2)c1`, the figure is 130 °C. As for `Cc1cc2c(Cl)c3ccccc3c(C=O)c2cc1C`, the figure is 150 to 153 °C; as for `CC(=O)C(=Cc1ccc(O)cc1)C(C)=O`, 123 to 127 °C. As for `CC1(C)CCC(C)(C)c2cc(CCc3ncccn3)c(C=O)cc21`, the figure is 78 to 84.5 °C; as for `Cc1oc(=O)c(Nc2ccccc2F)nc1Cl`, 126 to 129 °C. As for `CS(=O)c1cn(-c2c(Cl)cc(C(F)(F)F)cc2Cl)nc1C=NO` (stereo not given), the melting point lay within 239 to 240 °C. As for `CCN1C(=O)C(C)(C)C(=O)N(C)c2cc(CN(CCn3c(=O)ccc4ccccc43)Cc3ccc(OC)nc3C)ccc21`, the figure is 143 to 144 °C; as for `Nc1cc(C[C@H](Nc2nc3ccc(Cl)cc3cc2C(=O)O)C(=O)O)ccc1Oc1nc2ccc(Cl)cc2cc1C(=O)O`, greater than 250 °C; as for `NCCc1coc2ccc3c(c12)CCCO3`, 110 °C. Turning to `C=CCn1cnnc1-c1c(Cl)c(Cl)cc2nc(OC)c(OC)nc12`, the melting point was in the range of 206 to 208 °C. As for `C#CCC(CC#C)NC(=O)OC(C)(C)C`, the figure is 64 to 67 °C; as for `COc1ccc(CN2C(=O)C(C)(c3cc(CO)ccc3Cl)c3cc(Cl)ccc32)c(OC)c1` (stereo not given), 97 °C; as for `CC(C)C(=O)c1cnc(C(CC2CCCC2)c2ccc(S(C)(=O)=O)cc2)[nH]1` (stereo not given), 171 to 172 °C.

`COc1ccc(S(=O)O)cc1` registered a melting point of 173 to 174 °C. As for `C=C1C(=O)N(C)CCC1c1cccc(OC)c1` (stereo not given), the figure is 67 to 70 °C; as for `COc1ccc(N2CC(O)c3cc(Cl)sc3S2(=O)=O)cc1` (stereo not given), 127 to 132 °C; as for `CNc1nc2ccc(Cc3ccccn3)cc2s1`, 118 to 121 °C.

`CCc1cccc(C)c1CNc1cc(Cl)nc(Cl)c1[N+](=O)[O-]` had a melting point of 118 to 121 °C. As for `NC(=O)c1nc(-c2cccc(O)c2)nc2c1[nH]c(=O)n2C1CCOCC1`, the figure is 361 to 363 °C; as for `CCC(CNC(=O)Cc1c(Cl)cncc1Cl)c1cccc(OC)c1` (stereo not given), 104 to 105 °C. Consider `COc1ccc(C2CCc3cc(OC)ccc3C2CCCn2ccnc2)cc1` (stereo not given), for which the melting point is 67 °C. In turn, `CN1CN(C(=O)c2c(F)cccc2F)C(=O)N(c2ccc(SC(F)F)cc2F)C1` had a melting point of 135 to 137 °C.

In turn, `COC(=O)CCNc1ccccc1CNC(=O)C1Cc2ccccc2N1S(=O)(=O)c1ccc(-c2ccc(F)cc2OC)cc1` (stereo not given) gave a melting point of 78 to 80 °C. `CCOC(=O)c1ccc(N(C=O)Cc2ccc(Cl)cc2)cc1` gave a melting point of 72 to 73 °C. `NC(=O)c1nn(-c2ccc3c(c2)OCO3)c2c1CCc1ccc(NC(=O)c3cccnc3N)cc1-2` yielded a melting point of 265 to 267 °C.

`CCOc1ccc(-c2ccc(O)c(C=O)c2)cc1` registered a melting point of 94 to 95 °C. As for `CC(C)C(=O)c1cc(O)c(O)c([N+](=O)[O-])c1`, the figure is 98 to 99 °C.

Turning to `Cn1c(COc2ccc(CC3SC(=O)NC3=O)cc2)nc2ccc(O)nc21` (stereo not given), the melting point fell in the range of 240 to 242 °C. As for `Nc1ccccc1/C=C/C(=O)CC(=O)/C=C/c1ccc(O)cc1`, the figure is 186 to 193 °C; as for `Cc1cc(NN)nc(-c2ccncc2)n1`, 150 to 152 °C; as for `COc1ccc(-c2nsc(C(=O)O)c2C(=O)O)cc1OC`, 190 to 192 °C. For `COc1ccc2c(c1)sc1nc(Nc3ccccc3)nc(=Nc3ccccc3)n12`, the melting point was 213 to 214 °C. As for `Cn1cnnc1C(O)(c1ccc(Cl)cc1)c1ccc2c(c1)c(-c1cccc(Cl)c1)cc(=O)n2C` (stereo not given), the figure is 182 °C; as for `OCCNc1nnc(-c2ccc(F)c(F)c2Nc2ccc(I)cc2F)o1`, 100 to 103 °C. As for `O=C1NC(=O)C(n2cnc3ccccc32)=C1c1c[nH]c2ccccc12`, the figure is 310 to 320 °C. As to `COC(=O)c1cccc(-c2ncc(OCCCN(C)C)cn2)c1`, the melting point was 66 °C. As for `Nc1ccccc1C(=O)NO`, the figure is 140 to 142 °C; as for `N=C(N)c1ccc(N2CCN(C3CCC(CCC(=O)O)CC3)C2=O)cc1` (stereo not given), greater than 200 °C. As for `CCCCCCCCCCCCCc1cc(C(=O)OCC)c[nH]1`, the figure is 59.5 to 60.5 °C.

`Cc1oc(-c2ccccc2)nc1COc1cc(COc2ncccc2CC(=O)O)on1` came in with a melting point of 129 to 130 °C.

Take `Cc1ccc(S(=O)(=O)Oc2ccc(S(=O)(=O)c3c(-c4ccccc4)noc3C(C)C)cc2)cc1`: the melting point is 148 to 149 °C. As for `COc1cccc(-c2nc(-c3ccccc3C=O)n[nH]2)c1`, the figure is 163 to 165 °C; as for `CCOC(=O)c1csc(/C=C/c2cccc([N+](=O)[O-])c2)n1`, 151 to 153 °C; as for `N#CCCc1oc(/C=C/c2ccccc2)nc1-c1ccccc1`, 117 to 118 °C. On to `O=C1NCN(c2ccccc2)C12CCN(CC(O)COc1ccc(F)cc1)CC2` (stereo not given), for which the melting point was 152 to 154 °C.

Source of the values: a melting point compilation (Tetko et al.; mined from patent text by program, amines drawn as free bases though some values may be those of a salt).
